11 molecules from patent US10420772B2, “Animal and human anti-trypanosomonal and anti-leishmania agents” (Celgene Corporation, priority 2016, dated 2019) can be followed below.

Holding throughout (format): cell-based
Assay [1] deals with STIB 719/ILRAD 560 T. vivax (drug sensitive) strain. Put plainly: Ex vivo Alamar Blue 48 hrs drug sensitivity assay for T. vivax. Particulars: Trypanosoma vivax, STIB719; STIB 719/ILRAD 560 T. vivax bloodstream form, ex vivo, Alamar Blue, 48 hrs; read-out: T. vivax Act. The method in brief: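 Bloodstream-form trypanosomes taken from a parasitaemic mouse were exposed to compound for 45 h at 37°C, 5% CO2 in HMI medium with 20% bovine serum. Resazurin added for a further 3 h, fluorescence read at ex 536/em 588 nm. IC50 from 11-point sigmoidal curves, at least three independent runs.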

For assay [2], the system named is IL3000 T. congolense (drug sensitive) strain. Put plainly: In vitro Alamar Blue 72 hrs drug sensitivity assay for T. congolense. Particulars: Trypanosoma congolense, IL3000 T. congolense bloodstream form, read-out: T. congo Act. The gist of the method: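 Bloodstream-form IL3000 trypanosomes in HMI medium with 20% bovine serum were exposed to compound for 69 hrs at 34° C, 5% CO2. Resazurin was then added for 3 hrs and fluorescence read (ex 536/em 588 nm). IC50 came from 11-point sigmoidal curves over at least three independent runs.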
For orientation: Resazurin is reduced to fluorescent resorufin, in cell work by metabolically active cells.

Assay [3] deals with STIB 806 K T. evansi (drug sensitive) strain. In words: In vitro Alamar Blue 72 hrs drug sensitivity assay for T. evansi. Particulars: STIB 806 K T. evansi bloodstream form, Alamar Blue, 72 hrs; read-out: T. evansi Act. As for the experimental part:
In vitro Alamar Blue 72 hrs drug sensitivity assay for T. evansi. Compounds were tested in vitro for chemotherapeutic efficacy against the STIB 806 K T. evansi (drug sensitive) strain, using an Alamar Blue assay. Test compounds were prepared as 10 mg/mL DMSO stocks for each assay run. Compounds were assayed in at least three separate, independent test runs and an 11-point dilution curve was used to determine the IC50 values. Bloodstream form trypanosomes were incubated with test compounds for 69 hrs at 37° C. in a humidified atmosphere containing 5% CO2, supported in HMI media containing 15% horse serum. Thereafter, 10 μL of Resazurin dye (12.5 mg in 100 mL of phosphate buffered saline, Sigma-Aldrich, Buchs, Switzerland) were added for an additional 3 hrs. Plates were then read using a fluorescent plate reader (Spectramax, Gemini XS, Bucher Biotec, Basel, Switzerland) using an excitation wavelength of 536 nm and an emission wavelength of 588 nm. Data points were averaged to generate sigmoidal dose-response curves and IC50 values were determined using Softmax Pro 5.2 software.

Regarding `CC1(Nc2ncc3nc(Nc4cccc(C(F)(F)F)c4)n([C@H]4CC[C@@H](CN)CC4)c3n2)CCOCC1` [A-28, 9-((1s,4s)-4-(aminomethyl)cyclohexyl)-N2-(4-methyltetrahydro-2H-pyran-4-yl)-N8-(3-(trifluoromethyl)phenyl)-9H-purine-2,8-diamine], the IC50 in assay [1], in assay [2] and in assay [3] was under 0.15 µM each time.
Take `CC1(Nc2ncc3nc(Nc4ccnc(C(F)(F)F)c4)n([C@H]4CC[C@@H](CN)CC4)c3n2)CCOCC1` [A-34, 9-((1s,4s)-4-(aminomethyl)cyclohexyl)-N2-(4-methyltetrahydro-2H-pyran-4-yl)-N8-(2-(trifluoromethyl)pyridin-4-yl)-9H-purine-2,8-diamine]: the IC50 in assay [1], in assay [2] and in assay [3] was under 0.15 µM each time.
In the case of `CC1(Nc2ncc3nc(Nc4cc(Cl)cc(C(F)(F)F)c4)n([C@H]4CC[C@@H](CN)CC4)c3n2)CCOCC1` [A-36, 9-((1s,4s)-4-(aminomethyl)cyclohexyl)-N8-(3-chloro-5-(trifluoromethyl)phenyl)-N2-(4-methyltetrahydro-2H-pyran-4-yl)-9H-purine-2,8-diamine], the results for the IC50 in assay [1], in assay [2] and in assay [3] were under 0.15 µM, under 0.15 µM and 0.15 to 0.35 µM, respectively.
As for `CC1(Nc2ncc3nc(Nc4cccc(OC(F)(F)F)c4)n([C@H]4CC[C@@H](CN)CC4)c3n2)CCOCC1` [A-37, 9-((1s,4s)-4-(aminomethyl)cyclohexyl)-N2-(4-methyltetrahydro-2H-pyran-4-yl)-N8-(3-(trifluoromethoxy)phenyl)-9H-purine-2,8-diamine], the IC50 in assay [1], in assay [2] and in assay [3] was under 0.15 µM each time.
In the case of `CC1(Nc2ncc3nc(Nc4ccc(OC(F)(F)F)cc4)n([C@H]4CC[C@@H](CN)CC4)c3n2)CCOCC1` [A-38, 9-((1s,4s)-4-(aminomethyl)cyclohexyl)-N2-(4-methyltetrahydro-2H-pyran-4-yl)-N8-(4-(trifluoromethoxy)phenyl)-9H-purine-2,8-diamine], the IC50 in assay [1] is under 0.15 µM; in assay [2], under 0.15 µM; in assay [3], 0.15 to 0.35 µM.
`CC1(Nc2ncc3nc(Nc4cccc(Cl)c4)n([C@H]4CC[C@@H](CN5CCCCC5)CC4)c3n2)CCOCC1` [A-40, N8-(3-chlorophenyl)-N2-(4-methyltetrahydro-2H-pyran-4-yl)-9-((1s,4s)-4-(piperidin-1-ylmethyl)cyclohexyl)-9H-purine-2,8-diamine]: the IC50 in assay [1], in assay [2] and in assay [3] was under 0.15 µM in each case.
For the molecule `CC1(Nc2ncc3nc(Nc4cc(Cl)cc(Cl)c4)n([C@H]4CC[C@@H](CN)CC4)c3n2)CCOCC1` [A-43, 9-((1s,4s)-4-(aminomethyl)cyclohexyl)-N8-(3,5-dichlorophenyl)-N2-(4-methyltetrahydro-2H-pyran-4-yl)-9H-purine-2,8-diamine], the IC50 in assay [1], in assay [2] and in assay [3] was under 0.15 µM each time.
In the case of `CC1(Nc2ncc3nc(Nc4cc(F)cc(F)c4)n([C@H]4CC[C@@H](CN)CC4)c3n2)CCOCC1` [A-44, 9-((1s,4s)-4-(aminomethyl)cyclohexyl)-N8-(3,5-difluorophenyl)-N2-(4-methyltetrahydro-2H-pyran-4-yl)-9H-purine-2,8-diamine], the IC50 in assay [1], in assay [2] and in assay [3] was under 0.15 µM in each case.
In the case of `CC1(Nc2ncc3nc(Nc4cccc(C(F)(F)F)c4F)n([C@H]4CC[C@@H](CN)CC4)c3n2)CCOCC1` [A-46, 9-((1s,4s)-4-(aminomethyl)cyclohexyl)-N8-(2-fluoro-3-(trifluoromethyl)phenyl)-N2-(4-methyltetrahydro-2H-pyran-4-yl)-9H-purine-2,8-diamine], the IC50 in assay [1], in assay [2] and in assay [3] was under 0.15 µM each time.
Consider `CC1(Nc2ncc3nc(Nc4cc(F)cc(Cl)c4)n([C@H]4CC[C@@H](CN)CC4)c3n2)CCOCC1` [A-47, 9-((1s,4s)-4-(aminomethyl)cyclohexyl)-N8-(3-chloro-5-fluorophenyl)-N2-(4-methyltetrahydro-2H-pyran-4-yl)-9H-purine-2,8-diamine], for which the IC50 in assay [1], in assay [2] and in assay [3] was under 0.15 µM each time.
In the case of `CC1(Nc2ncc3nc(Nc4cccc(Cl)c4F)n([C@H]4CC[C@@H](CN)CC4)c3n2)CCOCC1` [A-49, 9-((1s,4s)-4-(aminomethyl)cyclohexyl)-N8-(3-chloro-2-fluorophenyl)-N2-(4-methyltetrahydro-2H-pyran-4-yl)-9H-purine-2,8-diamine], the IC50 in assay [1], in assay [2] and in assay [3] was under 0.15 µM each time.
